In PubChem BioAssay (NCI):
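Method: 48-hour compound exposure of cells in 96-well plates, five concentrations, linear interpolation of endpoints. TGI marks complete inhibition of growth.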

Assays:
Assay in all cases: inhibition of tumour cell growth, NCI panel, 48 h
SF-539 CNS = system: SF-539 CNS
T-47D breast = system: T-47D breast
UACC-62 melanoma = system: UACC-62 melanoma
U251 CNS = system: U251 CNS
NCI-H226 lung = system: NCI-H226 lung
HS 578T breast = system: HS 578T breast
NCI-H460 lung = system: NCI-H460 lung
CAKI-1 renal = system: CAKI-1 renal
OVCAR-4 ovarian = system: OVCAR-4 ovarian
A498 renal = system: A498 renal
NCI-H23 lung = system: NCI-H23 lung
BT-549 breast = system: BT-549 breast
SR leukemia = system: SR leukemia
M14 melanoma = system: M14 melanoma
A549 NSCLC = system: A549 NSCLC
CCRF-CEM leukemia = system: CCRF-CEM leukemia
LOX IMVI melanoma = system: LOX IMVI melanoma
MDA-MB-435 = system: MDA-MB-435
MALME-3M melanoma = system: MALME-3M melanoma
MDA-MB-231 breast = system: MDA-MB-231 breast
UACC-257 melanoma = system: UACC-257 melanoma
HCC-2998 colon = system: HCC-2998 colon
COLO 205 colon = system: COLO 205 colon
RPMI-8226 leukemia = system: RPMI-8226 leukemia
OVCAR-3 ovarian = system: OVCAR-3 ovarian
SW-620 colon = system: SW-620 colon
DU-145 prostate = system: DU-145 prostate
UO-31 renal = system: UO-31 renal
HCT-116 colon = system: HCT-116 colon
SN12C renal = system: SN12C renal
SK-MEL-28 melanoma = system: SK-MEL-28 melanoma
MCF7 breast = system: MCF7 breast
SF-295 CNS = system: SF-295 CNS
HOP-62 NSCLC = system: HOP-62 NSCLC
786-0 renal = system: 786-0 renal
K-562 leukemia = system: K-562 leukemia
ACHN renal = system: ACHN renal
MOLT-4 leukemia = system: MOLT-4 leukemia
KM12 colon = system: KM12 colon
SK-OV-3 ovarian = system: SK-OV-3 ovarian
NCI-H522 lung = system: NCI-H522 lung
OVCAR-8 ovarian = system: OVCAR-8 ovarian
SK-MEL-2 melanoma = system: SK-MEL-2 melanoma
HT29 colon = system: HT29 colon
TK-10 renal = system: TK-10 renal
NCI/ADR-RES ovarian = system: NCI/ADR-RES ovarian
SNB-19 CNS = system: SNB-19 CNS
HOP-92 NSCLC = system: HOP-92 NSCLC
SK-MEL-5 melanoma = system: SK-MEL-5 melanoma
HCT-15 colon = system: HCT-15 colon
HL-60(TB) leukemia = system: HL-60(TB) leukemia
SF-268 CNS = system: SF-268 CNS
OVCAR-5 ovarian = system: OVCAR-5 ovarian
EKVX NSCLC = system: EKVX NSCLC
RXF 393 renal = system: RXF 393 renal
MDA-N = system: MDA-N
IGROV1 ovarian = system: IGROV1 ovarian
PC-3 prostate = system: PC-3 prostate
SNB-75 CNS = system: SNB-75 CNS

## COc1ccccc1N1C(=O)/C(=C\c2cc(OC)c(OC)c(OC)c2)SC1c1ccccc1 (stereo unspecified)
SF-539 CNS
  TGI: > 100 µM
T-47D breast
  TGI: > 100 µM
UACC-62 melanoma
  TGI: > 100 µM
U251 CNS
  TGI: > 100 µM
NCI-H226 lung
  TGI: > 100 µM
HS 578T breast
  TGI: > 100 µM
NCI-H460 lung
  TGI: > 100 µM
CAKI-1 renal
  TGI: > 100 µM
OVCAR-4 ovarian
  TGI: > 100 µM
A498 renal
  TGI: > 100 µM
NCI-H23 lung
  TGI: > 100 µM
BT-549 breast
  TGI: > 100 µM
SR leukemia
  TGI: 72.7 µM
M14 melanoma
  TGI: 91.7 µM
A549 NSCLC
  TGI: > 100 µM
CCRF-CEM leukemia
  TGI: 45.5 µM
LOX IMVI melanoma
  TGI: > 100 µM
MDA-MB-435
  TGI: 53.5 µM
MALME-3M melanoma
  TGI: 81.4 µM
MDA-MB-231 breast
  TGI: > 100 µM
UACC-257 melanoma
  TGI: > 100 µM
HCC-2998 colon
  TGI: > 100 µM
COLO 205 colon
  TGI: > 100 µM
RPMI-8226 leukemia
  TGI: 25.4 µM
OVCAR-3 ovarian
  TGI: > 100 µM
SW-620 colon
  TGI: > 100 µM
DU-145 prostate
  TGI: > 100 µM
UO-31 renal
  TGI: > 100 µM
HCT-116 colon
  TGI: > 100 µM
SN12C renal
  TGI: > 100 µM
SK-MEL-28 melanoma
  TGI: > 100 µM
MCF7 breast
  TGI: > 100 µM
SF-295 CNS
  TGI: > 100 µM
HOP-62 NSCLC
  TGI: > 100 µM
786-0 renal
  TGI: > 100 µM
K-562 leukemia
  TGI: 38.2 µM
ACHN renal
  TGI: > 100 µM
MOLT-4 leukemia
  TGI: > 100 µM
KM12 colon
  TGI: > 100 µM
SK-OV-3 ovarian
  TGI: > 100 µM
NCI-H522 lung
  TGI: > 100 µM
OVCAR-8 ovarian
  TGI: > 100 µM
SK-MEL-2 melanoma
  TGI: > 100 µM
HT29 colon
  TGI: > 100 µM
TK-10 renal
  TGI: > 100 µM
NCI/ADR-RES ovarian
  TGI: > 100 µM
SNB-19 CNS
  TGI: > 100 µM
HOP-92 NSCLC
  TGI: > 100 µM
SK-MEL-5 melanoma
  TGI: > 100 µM
HCT-15 colon
  TGI: > 100 µM
HL-60(TB) leukemia
  TGI: > 100 µM
SF-268 CNS
  TGI: > 100 µM
OVCAR-5 ovarian
  TGI: > 100 µM
EKVX NSCLC
  TGI: > 100 µM
RXF 393 renal
  TGI: > 100 µM
MDA-N
  TGI: 42.5 µM

## c1ccc(CNCCN2CCNCC2)nc1
IGROV1 ovarian
  TGI: > 100 µM
SF-539 CNS
  TGI: > 100 µM
T-47D breast
  TGI: > 100 µM
UACC-62 melanoma
  TGI: > 100 µM
U251 CNS
  TGI: > 100 µM
NCI-H226 lung
  TGI: > 100 µM
HS 578T breast
  TGI: > 100 µM
NCI-H460 lung
  TGI: > 100 µM
CAKI-1 renal
  TGI: > 100 µM
OVCAR-4 ovarian
  TGI: > 100 µM
A498 renal
  TGI: > 100 µM
NCI-H23 lung
  TGI: > 100 µM
BT-549 breast
  TGI: > 100 µM
SR leukemia
  TGI: > 100 µM
M14 melanoma
  TGI: > 100 µM
A549 NSCLC
  TGI: > 100 µM
LOX IMVI melanoma
  TGI: > 100 µM
MDA-MB-435
  TGI: > 100 µM
MALME-3M melanoma
  TGI: > 100 µM
MDA-MB-231 breast
  TGI: > 100 µM
UACC-257 melanoma
  TGI: > 100 µM
COLO 205 colon
  TGI: > 100 µM
RPMI-8226 leukemia
  TGI: > 100 µM
OVCAR-3 ovarian
  TGI: > 100 µM
SW-620 colon
  TGI: > 100 µM
UO-31 renal
  TGI: > 100 µM
HCT-116 colon
  TGI: > 100 µM
SN12C renal
  TGI: > 100 µM
SK-MEL-28 melanoma
  TGI: > 100 µM
MCF7 breast
  TGI: > 100 µM
SF-295 CNS
  TGI: > 100 µM
HOP-62 NSCLC
  TGI: > 100 µM
786-0 renal
  TGI: > 100 µM
K-562 leukemia
  TGI: > 100 µM
ACHN renal
  TGI: > 100 µM
PC-3 prostate
  TGI: > 100 µM
MOLT-4 leukemia
  TGI: > 100 µM
KM12 colon
  TGI: > 100 µM
SK-OV-3 ovarian
  TGI: > 100 µM
NCI-H522 lung
  TGI: > 100 µM
OVCAR-8 ovarian
  TGI: > 100 µM
SNB-75 CNS
  TGI: > 100 µM
SK-MEL-2 melanoma
  TGI: > 100 µM
HT29 colon
  TGI: > 100 µM
TK-10 renal
  TGI: > 100 µM
NCI/ADR-RES ovarian
  TGI: > 100 µM
SNB-19 CNS
  TGI: > 100 µM
HOP-92 NSCLC
  TGI: > 100 µM
SK-MEL-5 melanoma
  TGI: > 100 µM
HCT-15 colon
  TGI: > 100 µM
SF-268 CNS
  TGI: > 100 µM
OVCAR-5 ovarian
  TGI: > 100 µM
EKVX NSCLC
  TGI: > 100 µM
RXF 393 renal
  TGI: > 100 µM
MDA-N
  TGI: > 100 µM
